Data published in patent US20240245783A1, “METALLO-BETA-LACTAMASE INHIBITOR” (priority 2021, published 2024).

Legend:
[1] = system: E. coli clinical isolate expressing IMP-1; test: Meropenem MIC against E. coli clinical isolate expressing IMP-1 (Test Example 10); format: cell-based
Procedure: The enhancing effect of DTPA-ADCA on the susceptibility of E. coli clinical isolate expressing IMP-1 to a carbapenem antibacterial agent (meropenem) was evaluated by the following method. The E. coli clinical isolate was cultured overnight with shaking in LB medium. The bacterial solution was diluted to 1/1000 with LB medium, used as a test bacterial solution, and then seeded in a 96-well plate. Meropenem (Wako Pure Chemical Industries, Ltd.) was added to the bacterial solution, thereby performing two-step dilution from a maximum of 10 μg/ml. The bacteria were cultured in an incubator at 37° C. for one day, and growth at that time was measured by turbidity (655 nm). The meropenem concentration at which no bacterial growth had been observed was defined as the minimum inhibitory concentration.
The effect of DTPA-ADCA on the susceptibility of an E. coli clinical isolate to meropenem was evaluated by the following method. The E. coli clinical isolate was cultured overnight with shaking in LB medium. The bacterial solution was diluted to 1/1000 with LB medium, used as the test bacterial solution, and then seeded in a 96-well plate. Meropenem (Wako Pure Chemical Industries, Ltd.) was added to this bacterial solution in the range of 0.1 μg/ml to 0.005 μg/ml. Here, DTPA or DTPA-ADCA was used in combination therewith at a concentration of […], and the effect on bacterial growth was examined. The bacteria were cultured in an incubator at 37° C. for one day, and the growth at that time was measured by turbidity (655 nm).
FIG. 20 depicts the results. Multidrug-resistant E. coli was cultured with compounds having the indicated concentrations and the bacterial load was assessed by turbidity after 24 hours. […] Combined use of DTPA-ADCA (20 μM) reduced the minimum inhibitory concentration of meropenem to […] and enhanced the antibacterial activity by 100 times.

[2] = biological target: T1, recombinant metallo-β-lactamase (recombinant IMP-1) (Serratia marcescens, UniProt P52699); test: Inhibition of meropenem degradation by recombinant IMP-1 (Test Example 1); format: biochemical; conditions: compound at 1, 5, and 10 μM; 100 μM meropenem; 1 hour at 37° C.; tandem mass spectrometry
T1 construct: made in house; host or cells: E. coli BL21(DE3), vector pET29a
Procedure: Based on the description of NON PATENT LITERATURE 5, a recombinant metallo-β-lactamase (recombinant IMP-1) was prepared. “NG_049172” of Database: RefSeq as the IMP-1 gene was incorporated into vector pET29a (Novagen), and then expressed in E. coli BL21(DE3) (Invitrogen).
Recombinant IMP-1 was dissolved in a 50 mM sodium phosphate buffer (pH 7.6) at a concentration of 0.25 μg/ml. Furthermore, zinc chloride was added to the solution in such a manner that the concentration was 0.1 μM. The resultant in this state was subjected to preincubation at 37° C. for 10 minutes. […] After 1 hour of incubation at 37° C. residual meropenem was quantified by tandem mass spectrometry. Meropenem was quantified by a multiple reaction monitoring method. […]
Reverse phase column: YMC-Triat C18 Plus column (2.1×50 mm); column temperature: 45° C.; mobile phase (2 liquids): mobile phase A (0.1% formic acid aqueous solution), mobile phase B (acetonitrile); gradient: increase from 1% B to 80% B for 10 minutes, keep it at 80% B for 0.5 minutes, and then return it to 1% B over 1 minute. […] Detection: multiple reaction monitoring, parent ion at 384.2, child ion at 68.1; measured in a positive ion mode.
FIG. 4 depicts a graph showing the results of quantifying the peak area of meropenem detected in FIG. 3. The peak of meropenem alone is expressed as 100%.

IMP-1-expressing E. coli = test: Susceptibility of IMP-1-expressing E. coli to meropenem (Test Example 5); format: cell-based; conditions: compound at 25 μM; meropenem diluted from 2 μM; turbidity 655 nm after one day
Procedure: Based on the description of NON PATENT LITERATURE 5, IMP-1-expressing E. coli was prepared.
The effects of DTPA-cefalexin and NOTA-cefalexin on the susceptibility of IMP-1-expressing E. coli to a carbapenem antibacterial agent (meropenem) were evaluated by the following method. The IMP-1-expressing E. coli was cultured overnight with shaking in LB medium containing 100 μg/ml ampicillin. The bacterial solution was diluted to 1/200 with LB medium, used as a test bacterial solution, and then seeded in a 96-well plate. Meropenem (Wako Pure Chemical Industries, Ltd.) was added to the bacterial solution, thereby performing two-step dilution from a maximum of 2 μM. The bacteria were cultured in an incubator at 37° C. for one day, and the growth at that time was measured by turbidity (655 nm). FIGS. 8 and 9 depict the results.
FIG. 8 depicts the susceptibility to meropenem when DTPA-cefalexin was added at 25 μM, or EDTA or DTPA was added at 25 μM. FIG. 9 depicts susceptibility to meropenem when NOTA-cefalexin was added at 25 μM. Those denoted as “control” in the figure show the results of adding only meropenem.

[3] = system: IMP-1-expressing Klebsiella pneumoniae; test: Survival of Leukopenia mice infected with IMP-1-expressing Klebsiella pneumoniae (Test Example 6); format: in vivo; conditions: meropenem 10 mg/kg and compound 1 50 mg/kg subcutaneously 30 min after infection; 48 hours; Leukopenia ddY mice
Procedure: DTPA-conjugated cefalexin (compound 1)'s effect of enhancing the drug susceptibility of pathogenic bacteria was examined by an in vivo experiment using bacteria-infected mice. To prepare a compromised Leukopenia mouse model, 0.1 mL of cyclophosphamide monohydrate (Sigma-Aldrich) prepared with PBS was administered intraperitoneally to 4-week-old male ddY mice (Japan SLC) at 250 mg/kg at 4 days before infection. IMP-1-expressing Klebsiella pneumoniae used herein was a clinical isolate provided by Kumamoto University Hospital. The bacteria were cultured overnight with shaking in LB medium at 37° C., then diluted 50-fold with LB medium, and further cultured with shaking, so that the turbidity (600 nm) was 1.5 or higher. The bacteria were centrifuged to remove the medium, washed twice with PBS, and then diluted with PBS to 5×10^5 CFU/mL. In the mouse infection experiment, each Leukopenia mouse was infected with 0.1 mL (5×10^4 CFU) of IMP-1-expressing Klebsiella pneumoniae by intraperitoneal injection. Thirty minutes after infection, 0.1 mL of a mixed solution containing meropenem (Wako Pure Chemical Industries, Ltd.) and compound 1 (DTPA-CEF) was subcutaneously administered to each mouse of a treatment mouse group at 10 mg/kg and 50 mg/kg, respectively. […] Forty-eight hours after infection, mice were assessed for viability. […]

[4] = combined use of DTPA-ADCA (20 μM)

T1 sequence (P52699 19-246 limits assumed): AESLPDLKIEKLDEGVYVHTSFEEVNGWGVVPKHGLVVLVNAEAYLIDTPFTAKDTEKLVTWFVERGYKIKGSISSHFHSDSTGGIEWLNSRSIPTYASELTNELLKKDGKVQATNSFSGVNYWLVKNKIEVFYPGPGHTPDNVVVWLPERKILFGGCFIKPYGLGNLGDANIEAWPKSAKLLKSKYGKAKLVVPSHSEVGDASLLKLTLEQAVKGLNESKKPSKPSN

Compound: O=C(O)CN(CCN(CC(=O)O)CC(=O)O)CCN(CC(=O)O)CC(=O)O [DTPA, reference compound]
- effect on the minimum inhibitory concentration of meropenem ([1]; DTPA used in combination with meropenem): had no such effect

Compound: CC1=C(C(=O)O)N2C(=O)[C@@H](NC(=O)C(NC(=O)CN(CCN(CCN(CC(=O)O)CC(=O)O)CC(=O)O)CC(=O)O)c3ccccc3)[C@H]2SC1 (stereo partly shown) [compound 1, DTPA-conjugated cefalexin]
- inhibition of meropenem degradation by IMP-1 (residual meropenem) [2]: inhibited the degradation of meropenem
- effect on susceptibility of IMP-1-expressing E. coli to meropenem (IMP-1-expressing E. coli): metallo-β-lactamase-expressing bacteria are killed by the effect of the carbapenem antibacterial agent
- percent survival [3]: 50%

Compound: CC1=C(C(=O)O)N2C(=O)[C@@H](NC(=O)CN(CCN(CCN(CC(=O)O)CC(=O)O)CC(=O)O)CC(=O)O)[C@H]2SC1 [compound 6, DTPA-conjugated ADCA]
- enhancement of the antibacterial activity of meropenem [1, 4]: 100 times
- minimum inhibitory concentration of meropenem [1, 4]: 10 µg/mL

Compound: CC1=C(C(=O)O)N2C(=O)[C@@H](NC(=O)[C@H](NC(=O)CN3CCN(CC(=O)O)CCN(CC(=O)O)CC3)c3ccccc3)[C@H]2SC1 [compound 7, NOTA-Conjugated Cefalexin]
- effect on susceptibility of IMP-1-expressing E. coli to meropenem (IMP-1-expressing E. coli): metallo-β-lactamase-expressing bacteria are killed by the effect of the carbapenem antibacterial agent
